{"source": "patent US20100022559A1", "about": "“BISOXIMES AS FUNGICIDES” (BAYER CROPSCIENCE AG, priority 2006, published 2010)"}
{"test": "logP determination by HPLC on a reversed-phase column (C 18), EEC Directive 79/831 Annex V.A8", "type": "physicochemical", "conditions": "value marked [a]", "protocol": "(§1) The stated logP values were determined in accordance with EEC Directive 79/831 Annex V.A8 by HPLC (high performance liquid chromatography) on a reversed-phase column (C 18). Temperature: 43° C."}
{"compound": "CC(=NOCCCCON=C(C)c1cccc(C)n1)c1ccc2ccccc2c1", "note": "[compound 445]", "logP": "5.72^[a]"}
{"test": "logP determination by HPLC on a reversed-phase column (C 18), EEC Directive 79/831 Annex V.A8", "type": "physicochemical", "conditions": "value marked [b]", "protocol": "as §1"}
{"compound": "C=C(CON=C(C)c1cccc(C)n1)CON=C(C)c1cc2ccccc2o1", "note": "[compound 404]", "logP": "4.57^[b]"}
{"compound": "C=C(CON=C(C)c1cccc(C)n1)CON=C(C)c1cccc2ccccc12", "note": "[compound 406]", "logP": "5.02^[b]"}
{"compound": "C=C(CON=C(C)c1cccnc1)CON=C(C)c1cccc(C)n1", "note": "[compound 407]", "logP": "2.15^[b]"}
{"compound": "C=C(CON=C(C)c1ccccc1)CON=C(C)c1cccc(C)n1", "note": "[compound 408]", "logP": "4.51^[b]"}
{"compound": "CC(=NOCC(C)(C)CON=C(C)c1cccc(C)n1)c1cc(C)ccn1", "note": "[compound 409]", "logP": "3.65^[b]"}
{"compound": "CC(=NOCC(C)(C)CON=C(C)c1cccc(C)n1)c1cccc(C(F)(F)F)c1", "note": "[compound 410]", "logP": "6.16^[b]"}
{"compound": "CC(=NOCC(C)(C)CON=C(C)c1nc(C)c(C)s1)c1cccc(C)n1", "note": "[compound 411]", "logP": "5.36^[b]"}
{"compound": "CC(=NOCC(C)(C)CON=C(C)c1cccc(C)n1)c1ccc2c(c1)OCO2", "note": "[compound 412]", "logP": "5.08^[b]"}
{"compound": "CC(=NOCC(C)(C)CON=C(C)c1ccccc1Cl)c1cccc(C)n1", "note": "[compound 413]", "logP": "5.59^[b]"}
{"compound": "COc1ccc(C(C)=NOCC(C)(C)CON=C(C)c2cccc(C)n2)cc1OC", "note": "[compound 414]", "logP": "4.57^[b]"}
{"compound": "COc1ccc(C(C)=NOCC(C)(C)CON=C(C)c2cc3ccccc3o2)cc1OC", "note": "[compound 415]", "logP": "5.42^[b]"}
{"compound": "CC(=NOCC(C)(C)CON=C(C)c1cccc2ccccc12)c1cccc(C)n1", "note": "[compound 417]", "logP": "5.90^[b]"}
{"compound": "CC(=NOCC(C)(C)CON=C(C)c1cccc(C)n1)c1cccnc1", "note": "[compound 418]", "logP": "2.80^[b]"}
{"compound": "CC(=NOCC(C)(C)CON=C(C)c1cccc(C)n1)c1ccccc1", "note": "[compound 419]", "logP": "5.42^[b]"}
{"compound": "CC(=NOCC(C)CON=C(c1ccccc1)c1ncccc1C)c1cccc(C)n1", "note": "(centres unmarked) [compound 421]", "logP": "4.15^[b]"}
{"compound": "CC(=NOCC(C)CON=C(CC(C)C)c1ncccc1C)c1cccc(C)n1", "note": "(centres unmarked) [compound 422]", "logP": "4.51^[b]"}
{"compound": "C=CCCC(=NOCC(C)CON=C(C)c1cccc(C)n1)c1ncccc1C", "note": "(centres unmarked) [compound 424]", "logP": "4.10^[b]"}
{"compound": "CCC(=NOCC(C)CON=C(C)c1cccc(C)n1)c1ncccc1C", "note": "(centres unmarked) [compound 425]", "logP": "3.99^[b]"}
{"compound": "CC(=NOCC(C)CON=C(C)c1cnnc(C)n1)c1cccc(C)n1", "note": "(centres unmarked) [compound 426]", "logP": "3.24^[b]"}
{"compound": "CC(=NOCC(C)CON=C(C)c1ccnc(C)n1)c1cccc(C)n1", "note": "(centres unmarked) [compound 430]", "logP": "3.56^[b]"}
{"compound": "CC(=NOCC(C)CON=C(C)c1cccc(C)n1)c1cncc(C)c1", "note": "(centres unmarked) [compound 431]", "logP": "2.37^[b]"}
{"compound": "CC(=NOCC(C)CON=C(C)c1cccc(C)n1)c1ccnc(C)c1", "note": "(centres unmarked) [compound 432]", "logP": "1.80^[b]"}
{"compound": "CC(=NOCC(C)CON=C(C)c1cccc(C)n1)c1cccc(C(F)(F)F)c1", "note": "(centres unmarked) [compound 433]", "logP": "5.71^[b]"}
{"compound": "CC(=NOCC(C)CON=C(C)c1nc(C)c(C)s1)c1cccc(C)n1", "note": "(centres unmarked) [compound 434]", "logP": "4.85^[b]"}
{"compound": "CC(=NOCC(C)CON=C(C)c1cccc(C)n1)c1ccc2c(c1)OCO2", "note": "(centres unmarked) [compound 435]", "logP": "4.57^[b]"}
{"compound": "CC(=NOCC(C)CON=C(C)c1ccccc1Cl)c1cccc(C)n1", "note": "(centres unmarked) [compound 436]", "logP": "5.08^[b]"}
{"compound": "CC(=NOCC(C)CON=C(C)c1cccc2ccccc12)c1cccc(C)n1", "note": "(centres unmarked) [compound 437]", "logP": "5.36^[b]"}
{"compound": "CC(=NOCC(C)CON=C(C)c1cccc(C)n1)c1cccnc1", "note": "(centres unmarked) [compound 438]", "logP": "2.34^[b]"}
{"compound": "CC(=NOCC(C)CON=C(C)c1cccc(C)n1)c1ccccc1", "note": "(centres unmarked) [compound 439]", "logP": "4.91^[b]"}
{"compound": "CC(=NOCCCCON=C(C)c1cccc(C)n1)c1ccncc1", "note": "[compound 440]", "logP": "1.88^[b]"}
{"compound": "CC(=NOCCCCON=C(C)c1cccc(C)n1)c1ccc2c(c1)CC(C)O2", "note": "(centres unmarked) [compound 441]", "logP": "4.91^[b]"}
{"compound": "CC(=NOCCCCON=C(C)c1cccc(C)n1)c1cccc(Cl)c1", "note": "[compound 442]", "logP": "5.54^[b]"}
{"compound": "COc1cccc(C(C)=NOCCCCON=C(C)c2cccc(C)n2)c1", "note": "[compound 443]", "logP": "4.57^[b]"}
{"compound": "CC(=NOCCCCON=C(C)c1cccc(C)n1)c1ccc(Cl)cc1", "note": "[compound 444]", "logP": "5.54^[b]"}
{"compound": "CC(=NOCCCCON=C(C)c1ccc(Cl)s1)c1cccc(C)n1", "note": "[compound 446]", "logP": "4.97^[b]"}
{"compound": "CC(=NOCCCCON=C(C)c1cc(C)cc(C)n1)c1cccc(C)n1", "note": "[compound 447]", "logP": "2.41^[b]"}
{"compound": "CC(=NOCCCCON=C(C)c1cccnc1C)c1cccc(C)n1", "note": "[compound 448]", "logP": "1.69^[b]"}
{"compound": "COc1cc(C)nc(C(C)=NOCCCCON=C(C)c2cccc(C)n2)c1", "note": "[compound 449]", "logP": "3.11^[b]"}
{"compound": "CCCc1cccc(C(C)=NOCCCCON=C(C)c2cccc(C)n2)n1", "note": "[compound 450]", "logP": "5.48^[b]"}
{"compound": "CC(=NOCCCCON=C(C)c1ncccc1C)c1cccc(C)n1", "note": "[compound 451]", "logP": "3.02^[b]"}
{"compound": "CC(=NOCCCCON=C(C)c1cccc(C(C)C)n1)c1cccc(C)n1", "note": "[compound 452]", "logP": "5.97^[b]"}
{"compound": "CC(=NOCCCCON=C(C)c1cncc(C)n1)c1cccc(C)n1", "note": "[compound 453]", "logP": "1.88^[b]"}
{"compound": "CC(=NOCCCCCCON=C(C)c1cccc(C)n1)c1ccncc1", "note": "[compound 454]", "logP": "2.62^[b]"}
{"compound": "CC(=NOCCCCCCON=C(C)c1cccc(C)n1)c1ccc2c(c1)CC(C)O2", "note": "(centres unmarked) [compound 455]", "logP": "5.97^[b]"}
{"compound": "CC(=NOCCCCCCON=C(C)c1cccc(C)n1)c1cccc(Cl)c1", "note": "[compound 456]", "logP": "6.58^[b]"}
{"compound": "COc1cccc(C(C)=NOCCCCCCON=C(C)c2cccc(C)n2)c1", "note": "[compound 457]", "logP": "5.59^[b]"}
{"compound": "CC(=NOCCCCCCON=C(C)c1cccc(C)n1)c1ccc(Cl)cc1", "note": "[compound 458]", "logP": "6.58^[b]"}
{"compound": "CC(=NOCCCCCCON=C(C)c1ccc(Cl)s1)c1cccc(C)n1", "note": "[compound 459]", "logP": "6.16^[b]"}
{"compound": "CC(=NOCCCCCCON=C(C)c1cccnc1C)c1cccc(C)n1", "note": "[compound 461]", "logP": "2.27^[b]"}
{"compound": "COc1cc(C)nc(C(C)=NOCCCCCCON=C(C)c2cccc(C)n2)c1", "note": "[compound 462]", "logP": "4.15^[b]"}
{"compound": "CCCc1cccc(C(C)=NOCCCCCCON=C(C)c2cccc(C)n2)n1", "note": "[compound 463]", "logP": "6.79^[b]"}
{"compound": "CC(=NOCCCCCCON=C(C)c1ncccc1C)c1cccc(C)n1", "note": "[compound 464]", "logP": "4.25^[b]"}
{"compound": "CC(=NOCCCCCCON=C(C)c1cccc(C(C)C)n1)c1cccc(C)n1", "note": "[compound 465]", "logP": "7.12^[b]"}
{"compound": "CC(=NOCCCCCCON=C(C)c1cncc(C)n1)c1cccc(C)n1", "note": "[compound 466]", "logP": "4.8^[b]"}
{"compound": "C=C(CON=C(C)c1ccncc1)CON=C(C)c1cccc(C)n1", "note": "[compound 467]", "logP": "1.88^[b]"}
{"compound": "C=C(CON=C(C)c1ccc2c(c1)CC(C)O2)CON=C(C)c1cccc(C)n1", "note": "(centres unmarked) [compound 468]", "logP": "4.85^[b]"}
{"compound": "C=C(CON=C(C)c1cccc(Cl)c1)CON=C(C)c1cccc(C)n1", "note": "[compound 469]", "logP": "5.31^[b]"}
{"compound": "C=C(CON=C(C)c1cccc(OC)c1)CON=C(C)c1cccc(C)n1", "note": "[compound 470]", "logP": "4.46^[b]"}
{"compound": "C=C(CON=C(C)c1ccc(Cl)cc1)CON=C(C)c1cccc(C)n1", "note": "[compound 471]", "logP": "5.48^[b]"}
{"compound": "C=C(CON=C(C)c1ccc2ccccc2c1)CON=C(C)c1cccc(C)n1", "note": "[compound 472]", "logP": "5.48^[b]"}
{"compound": "C=C(CON=C(C)c1cccc(C)n1)CON=C(C)c1cccc(C(C)C)n1", "note": "[compound 479]", "logP": "5.78^[b]"}
